Source: patent EP3046573B1, “AMYLIN ANALOGUES” (Zealand Pharma A/S, priority 2013, dated 2015)
Read-outs that look alike come from different tables or passages of the source. Numbered stars: 1 amine (or outer) side, 2 acyl side, 3 side chain; on linkers, the order of the positions; unused ones are H or OH. Bridge positions count the residues as written; N and C are the ends. Square brackets hold non-standard residues; d marks the D form. Peptide text beside a SMILES is read from it. * marks the point of attachment. C20 diacid = O=C(O)CCCCCCCCCCCCCCCCCCC(=O)*; γGlu = O=C(O)[C@H](CCC(=O)[*:2])N[*:1]; NMeY = CN[C@@H](Cc1ccc(O)cc1)C(=O)O; NMeI = CC[C@H](C)[C@H](NC)C(=O)O; Dab = NCC[C@H](N)C(=O)O; Sar = CNCC(=O)O

Assays:
[1] = Solubility assessment (turbidity absorbance at 325 nm); assay type: physicochemical; settings: stock 2 mg/ml diluted 1:1, ambient temperature (typically 25°C), n=1; for Solubility, Acetate buffer pH 4: 100 mM acetate buffer pH 4.0; for Solubility, Acetate buffer pH 5: 100 mM acetate buffer pH 5.0; for Solubility, Histidine buffer pH 6: 100 mM histidine buffer pH 6.0; for Solubility, Histidine buffer pH 7: 100 mM histidine buffer pH 7.0; for Solubility, Phosphate buffer pH 6: 100 mM phosphate buffer pH 6.0; for Solubility, Phosphate buffer pH 7: 100 mM phosphate buffer pH 7.0; for Solubility, Phosphate buffer pH 7.5: 100 mM phosphate buffer pH7.5
Method in brief: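 Peptide stock (2 mg/ml, water pH 2.5) diluted 1:1 into 100 mM acetate (pH 4.0, 5.0), histidine (pH 6.0, 7.0) or phosphate (pH 6.0–7.5) buffer; absorbance at 325 nm read at about 25°C, n=1. A325 ≤ 0.02 taken as solubility ≥ 1 mg/ml.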

[2] = target: T1, human calcitonin receptor (hCTR2) (Homo sapiens, UniProt P30988); experiment: hCTR2 assay: induction of cAMP (AlphaScreen cAMP Assay kit) in COS7 cells expressing hCTR2; assay type: cell-based
T1 construct: expressed in transfected cells
T1 sequence (P30988 25-474): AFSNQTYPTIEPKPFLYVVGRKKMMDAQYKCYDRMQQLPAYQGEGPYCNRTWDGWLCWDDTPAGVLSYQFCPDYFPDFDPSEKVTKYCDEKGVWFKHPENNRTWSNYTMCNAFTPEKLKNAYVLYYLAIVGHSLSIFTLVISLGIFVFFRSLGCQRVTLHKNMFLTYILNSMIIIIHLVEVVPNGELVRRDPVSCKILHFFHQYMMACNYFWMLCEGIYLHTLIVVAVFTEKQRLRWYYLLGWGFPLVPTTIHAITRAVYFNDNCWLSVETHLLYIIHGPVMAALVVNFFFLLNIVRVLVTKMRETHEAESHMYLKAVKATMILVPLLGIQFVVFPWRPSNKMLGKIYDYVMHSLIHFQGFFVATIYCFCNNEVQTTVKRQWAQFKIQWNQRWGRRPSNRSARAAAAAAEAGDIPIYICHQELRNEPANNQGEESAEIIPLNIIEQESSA
Method in brief: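 Stable hCTR2 clone in RAMP-naive COS7 cells; peptides titrated in Tyrode buffer (pH 7.4) with 100 µM IBMX, 0.1% casein, 15 min at 37° C. cAMP read by AlphaScreen after lysis; EC50 and efficacy relative to pramlintide from 4PL fit.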

[3] = cAMP induction in COS7 cells expressing hCTR2, average of a minimum of 3 determinations, read-out: hCTR2 EC50

Row | EC50 [2, 3] [pM] | Compound | Solubility, Acetate buffer pH 4 [1] | Solubility, Acetate buffer pH 5 [1] | Solubility, Histidine buffer pH 6 [1] | Solubility, Histidine buffer pH 7 [1] | Solubility, Phosphate buffer pH 6 [1] | Solubility, Phosphate buffer pH 7 [1] | Solubility, Phosphate buffer pH 7.5 [1] | EC50 [2] [pM]
1 |  | CC[C@H](C)[C@@H](C(=O)N[C@@H](CC(C)C)C(=O)N[C@H](CO)C(=O)N[C@@H](CO)C(=O)N[C@H](C(=O)N[C@@H](CC(N)=O)C(=O)N[C@H](C(=O)NCC(=O)N[C@@H](CO)C(=O)N[C@@H](CC(N)=O)C(=O)N[C@H](C(=O)N1CCC[C@H]1C(N)=O)[C@@H](C)O)C(C)C)[C@@H](C)O)N(C)C(=O)[C@H](C)NC(=O)CN(C)C(=O)[C@@H](Cc1ccccc1)NC(=O)[C@H](CC(N)=O)NC(=O)[C@H](CC(N)=O)NC(=O)[C@H](CO)NC(=O)[C@H](CO)NC(=O)[C@H](Cc1c[nH]cn1)NC(=O)[C@H](Cc1c[nH]cn1)NC(=O)[C@H](CC(C)C)NC(=O)[C@H](Cc1ccccc1)NC(=O)[C@H](CCC(=O)O)NC(=O)[C@H](C)NC(=O)[C@H](CC(C)C)NC(=O)[C@H](CCCNC(=N)N)NC(=O)[C@H](CCC(N)=O)NC(=O)[C@@H](NC(=O)[C@H](C)NC(=O)[C@@H]1CSSC[C@H](NC(=O)[C@H](CCCNC(=N)N)NC(=O)CC[C@H](NC(=O)CCCCCCCCCCCCCCCCCCC(=O)O)C(=O)O)C(=O)N[C@@H](CC(N)=O)C(=O)N[C@@H]([C@@H](C)O)C(=O)N[C@@H](C)C(=O)N[C@@H]([C@@H](C)O)C(=O)N1)[C@@H](C)O [Compound 59, [19CD]-isoGlu-RC()NTATC()ATQRLAEFLHHSSNN-DPhe-Gly(Me)-A-Ile(Me)-L-DSer-STNVGSNTP-NH2] ({C20 diacid-γGlu}-RCNTATCATQRLAEFLHHSSNN[dF][Sar]A[NMeI]L[dS]STNVGSNTP-NH2; disulfide 2-7) | SS (SS indicates solubility ≥ 1mg/ml) | SS (SS indicates solubility ≥ 1mg/ml) | SS (SS indicates solubility ≥ 1mg/ml) | SS (SS indicates solubility ≥ 1mg/ml) | SS (SS indicates solubility ≥ 1mg/ml) | II (II indicates solubility ≤ 1 mg/ml) | SS (SS indicates solubility ≥ 1mg/ml) | 140
2 | 120 | CC[C@H](C)[C@@H](C(=O)N[C@@H](CC(C)C)C(=O)N[C@H](CO)C(=O)N[C@@H](CO)C(=O)N[C@H](C(=O)N[C@@H](CC(N)=O)C(=O)N[C@H](C(=O)NCC(=O)N[C@@H](CO)C(=O)N[C@@H](CC(N)=O)C(=O)N[C@H](C(=O)N1CCC[C@H]1C(N)=O)[C@@H](C)O)C(C)C)[C@@H](C)O)N(C)C(=O)CN(C)C(=O)[C@@H](Cc1ccccc1)NC(=O)[C@H](CC(N)=O)NC(=O)[C@H](CC(N)=O)NC(=O)[C@H](CO)NC(=O)[C@H](CO)NC(=O)[C@H](Cc1c[nH]cn1)NC(=O)[C@H](Cc1c[nH]cn1)NC(=O)[C@H](CC(C)C)NC(=O)[C@H](Cc1ccccc1)NC(=O)[C@H](CCC(=O)O)NC(=O)[C@H](C)NC(=O)[C@H](CC(C)C)NC(=O)[C@H](CCCNC(=N)N)NC(=O)[C@H](CCC(N)=O)NC(=O)[C@@H](NC(=O)[C@H](C)NC(=O)[C@@H]1CSSC[C@H](NC(=O)[C@H](CCCNC(=N)N)NC(=O)CC[C@H](NC(=O)CCCCCCCCCCCCCCCCCCC(=O)O)C(=O)O)C(=O)N[C@@H](CC(N)=O)C(=O)N[C@@H]([C@@H](C)O)C(=O)N[C@@H](C)C(=O)N[C@@H]([C@@H](C)O)C(=O)N1)[C@@H](C)O [Compound 60, [19CD]-isoGlu-RC()NTATC()ATQRLAEFLHHSSNN-DPhe-Gly(Me)-Ile(Me)-L-DSer-STNVGSNTP-NH2] ({C20 diacid-γGlu}-RCNTATCATQRLAEFLHHSSNN[dF][Sar][NMeI]L[dS]STNVGSNTP-NH2; disulfide 2-7) | SS (SS indicates solubility ≥ 1mg/ml) | SS (SS indicates solubility ≥ 1mg/ml) | SS (SS indicates solubility ≥ 1mg/ml) | SS (SS indicates solubility ≥ 1mg/ml) | SS (SS indicates solubility ≥ 1mg/ml) | II (II indicates solubility ≤ 1 mg/ml) | SS (SS indicates solubility ≥ 1mg/ml) | 
3 | 370 | CC[C@H](C)[C@@H](C(=O)N[C@@H](CC(C)C)C(=O)N[C@@H](CO)C(=O)N[C@@H](CO)C(=O)N[C@H](C(=O)N[C@@H](CC(N)=O)C(=O)N[C@H](C(=O)NCC(=O)N[C@@H](CO)C(=O)N[C@@H](CC(N)=O)C(=O)N[C@H](C(=O)N(C)[C@@H](Cc1ccc(O)cc1)C(N)=O)[C@@H](C)O)C(C)C)[C@@H](C)O)N(C)C(=O)CN(C)C(=O)[C@H](Cc1ccccc1)NC(=O)[C@H](CC(N)=O)NC(=O)[C@H](CC(N)=O)NC(=O)[C@H](CO)NC(=O)[C@H](CO)NC(=O)[C@H](Cc1c[nH]cn1)NC(=O)[C@H](Cc1c[nH]cn1)NC(=O)[C@H](CC(C)C)NC(=O)[C@H](Cc1ccccc1)NC(=O)[C@H](CCC(=O)O)NC(=O)[C@H](C)NC(=O)[C@H](CC(C)C)NC(=O)[C@H](CCCNC(=N)N)NC(=O)[C@H](CCC(N)=O)NC(=O)[C@@H](NC(=O)[C@H](C)NC(=O)[C@@H]1CSSC[C@H](NC(=O)[C@H](CCCNC(=N)N)NC(=O)CC[C@H](NC(=O)CCCCCCCCCCCCCCCCCCC(=O)O)C(=O)O)C(=O)N[C@@H](CC(N)=O)C(=O)N[C@@H]([C@@H](C)O)C(=O)N[C@@H](C)C(=O)N[C@@H]([C@@H](C)O)C(=O)N1)[C@@H](C)O [Compound 62, [19CD]-isoGlu-RC()NTATC()ATQRLAEFLHHSSNNF-Gly(Me)-Ile(Me)-LSSTNVGSNT-Tyr(Me)-NH2] ({C20 diacid-γGlu}-RCNTATCATQRLAEFLHHSSNNF[Sar][NMeI]LSSTNVGSNT[NMeY]-NH2; disulfide 2-7) | SS (SS indicates solubility ≥ 1mg/ml) | II (II indicates solubility ≤ 1 mg/ml) | II (II indicates solubility ≤ 1 mg/ml) | II (II indicates solubility ≤ 1 mg/ml) | II (II indicates solubility ≤ 1 mg/ml) | II (II indicates solubility ≤ 1 mg/ml) | II (II indicates solubility ≤ 1 mg/ml) | 
4 |  | CC[C@H](C)[C@@H](C(=O)N[C@@H](CC(C)C)C(=O)N[C@@H](CO)C(=O)N[C@@H](CO)C(=O)N[C@H](C(=O)N[C@@H](CC(N)=O)C(=O)N[C@H](C(=O)NCC(=O)N[C@@H](CO)C(=O)N[C@@H](CC(N)=O)C(=O)N[C@H](C(=O)N1CCC[C@H]1C(N)=O)[C@@H](C)O)C(C)C)[C@@H](C)O)N(C)C(=O)[C@H](C)NC(=O)CN(C)C(=O)[C@H](Cc1ccccc1)NC(=O)[C@H](CC(N)=O)NC(=O)[C@H](CC(N)=O)NC(=O)[C@H](CO)NC(=O)[C@H](CO)NC(=O)[C@H](Cc1c[nH]cn1)NC(=O)[C@H](Cc1c[nH]cn1)NC(=O)[C@H](CC(C)C)NC(=O)[C@H](Cc1ccccc1)NC(=O)[C@H](CCC(=O)O)NC(=O)[C@H](C)NC(=O)[C@H](CC(C)C)NC(=O)[C@H](CCCNC(=N)N)NC(=O)[C@H](CCC(N)=O)NC(=O)[C@@H](NC(=O)[C@H](C)NC(=O)[C@@H]1CSSC[C@H](NC(=O)[C@H](CCN)NC(=O)CC[C@H](NC(=O)CCCCCCCCCCCCCCCCCCC(=O)O)C(=O)O)C(=O)N[C@@H](CC(N)=O)C(=O)N[C@@H]([C@@H](C)O)C(=O)N[C@@H](C)C(=O)N[C@@H]([C@@H](C)O)C(=O)N1)[C@@H](C)O [Compound 63, [19CD]-isoGlu-Dab-C()NTATC()ATQRLAEFLHHSSNNF-Gly(Me)-A-Ile(Me)-LSSTNVGSNTP-NH2] ({C20 diacid-γGlu}-[Dab]CNTATCATQRLAEFLHHSSNNF[Sar]A[NMeI]LSSTNVGSNTP-NH2; disulfide 2-7) | SS (SS indicates solubility ≥ 1mg/ml) | II (II indicates solubility ≤ 1 mg/ml) | SS (SS indicates solubility ≥ 1mg/ml) | SS (SS indicates solubility ≥ 1mg/ml) | SS (SS indicates solubility ≥ 1mg/ml) | SS (SS indicates solubility ≥ 1mg/ml) | SS (SS indicates solubility ≥ 1mg/ml) | 200
